Patent US11001590B2, “Pyrazolopyrimidine derivatives” (BAYER ANIMAL HEALTH GMBH, priority 2016, dated 2021)

How the values were obtained:
[1] = log P by HPLC on reversed phase columns (Method L0; [a] acidic, [b] neutral range)
Experimental: Calibration was done with straight-chain alkan-2-ones (with 3 to 16 carbon atoms) with known log P values (measurement of log P values using retention times with linear interpolation between successive alkanones). Lambda-max-values were determined using UV-spectra from 200 nm to 400 nm and the peak values of the chromatographic signals.

[2] = test system: Dirofilaria immitis microfilariae; test: In vitro assay 3: Dirofilaria immitis microfilariae (DIROIM L1), motility; details: 72 h, reduction of motility vs negative control, 72 h incubation
[3] = molecular target: C. elegans Slo-1a (Caenorhabditis elegans, UniProt Q95V25); test: In vitro assay 1: C. elegans Slo-1a, action at a recombinant C. elegans CHO cell line (membrane potential measurement)
Chain of C. elegans Slo-1a (Q95V25 whole entry): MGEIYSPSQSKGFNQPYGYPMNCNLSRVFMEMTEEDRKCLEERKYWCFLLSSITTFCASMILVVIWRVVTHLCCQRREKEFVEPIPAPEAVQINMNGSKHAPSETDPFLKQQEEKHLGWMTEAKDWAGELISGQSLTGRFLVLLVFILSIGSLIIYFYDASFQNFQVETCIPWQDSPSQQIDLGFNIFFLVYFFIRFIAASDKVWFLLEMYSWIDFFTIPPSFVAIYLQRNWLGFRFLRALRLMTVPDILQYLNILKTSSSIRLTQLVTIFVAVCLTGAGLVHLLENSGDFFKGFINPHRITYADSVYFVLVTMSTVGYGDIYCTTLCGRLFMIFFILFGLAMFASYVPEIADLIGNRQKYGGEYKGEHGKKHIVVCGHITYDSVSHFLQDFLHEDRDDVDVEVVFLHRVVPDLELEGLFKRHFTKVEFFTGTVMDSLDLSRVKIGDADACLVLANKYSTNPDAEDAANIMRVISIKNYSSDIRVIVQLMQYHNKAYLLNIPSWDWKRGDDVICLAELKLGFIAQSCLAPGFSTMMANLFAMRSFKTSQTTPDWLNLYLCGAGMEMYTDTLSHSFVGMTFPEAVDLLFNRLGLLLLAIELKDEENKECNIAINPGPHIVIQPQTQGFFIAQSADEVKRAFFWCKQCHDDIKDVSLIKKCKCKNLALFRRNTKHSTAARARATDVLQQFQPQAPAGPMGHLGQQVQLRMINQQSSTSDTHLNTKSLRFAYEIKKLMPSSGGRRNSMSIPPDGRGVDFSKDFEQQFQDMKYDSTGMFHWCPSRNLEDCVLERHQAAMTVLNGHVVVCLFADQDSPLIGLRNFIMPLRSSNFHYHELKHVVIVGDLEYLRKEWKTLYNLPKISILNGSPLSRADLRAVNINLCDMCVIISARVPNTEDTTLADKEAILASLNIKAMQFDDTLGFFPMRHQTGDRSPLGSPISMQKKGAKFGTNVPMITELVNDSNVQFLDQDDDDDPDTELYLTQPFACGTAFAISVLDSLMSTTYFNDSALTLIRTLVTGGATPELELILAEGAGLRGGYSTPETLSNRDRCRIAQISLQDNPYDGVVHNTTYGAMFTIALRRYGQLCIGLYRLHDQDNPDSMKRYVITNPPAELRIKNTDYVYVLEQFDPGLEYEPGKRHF

SMILES	chromatographic logP [1]	EC50 [2]	EC50 [3]
Cc1nn2c(C(C)C)c(C(=O)N[C@H]3CCCc4ccccc43)cnc2c1-c1ccc(F)cc1 [Example 343]	4.95	< 10 µg/mL	20 nM
Cc1nn2c(C(C)C)c(C(=O)N[C@H]3CCCc4ccccc43)cnc2c1-c1cccc(OC(F)(F)F)c1 [Example 345]	5.82	< 1 µg/mL	12.6 nM
COc1cccc(-c2c(C)nn3c(C(C)C)c(C(=O)N[C@H]4CCCc5ccccc54)cnc23)c1 [Example 346]	4.82	< 0.1 µg/mL	12.6 nM
Cc1nn2c(C(C)C)c(C(=O)N[C@H]3CCCc4ccccc43)cnc2c1-c1cccc(F)c1 [Example 347]	5.04	< 1 µg/mL	39.8 nM
Cc1nn2c(C(C)C)c(C(=O)N[C@H]3CCc4ccccc43)cnc2c1-c1cccc(CN2CCOCC2)c1 [Example 354]	2.01	< 10 µg/mL	398 nM
CCN(CC)Cc1cccc(-c2c(C)nn3c(C(C)C)c(C(=O)N[C@H]4CCc5ccccc54)cnc23)c1 [Example 355]	2.12	< 10 µg/mL	2510 nM
Cc1nn2c(C(C)C)c(C(=O)N[C@H]3CCc4ccccc43)cnc2c1-c1cccc(N2CCCCC2)c1 [Example 356]	3.25	< 10 µg/mL	158 nM
Cc1nn2c(C3CC3)c(C(=O)N[C@H]3CCc4ccccc43)cnc2c1-c1cccc(OC(F)(F)F)c1 [Example 360]	4.72	< 1 µg/mL	12.6 nM
Cc1nn2c(C(C)C)c(C(=O)N[C@H]3CCCc4ccccc43)cnc2c1-c1cccc(N(C)C)c1 [Example 361]	4.32	< 1 µg/mL	15.8 nM
Cc1nn2c(C(C)C)c(C(=O)N[C@H]3CCCc4ccccc43)cnc2c1-c1cncc(Cl)c1 [Example 362]	4.52	< 10 µg/mL	100 nM
COc1cc(-c2c(C)nn3c(C(C)C)c(C(=O)N[C@H]4CCCc5ccccc54)cnc23)cc(C(F)(F)F)c1 [Example 363]	5.7	< 10 µg/mL	63.1 nM
Cc1nn2c(C(C)C)c(C(=O)N[C@H]3CCc4ccccc43)cnc2c1-c1cccc(CN2CCCC2)c1 [Example 365]	2.08	< 10 µg/mL	3160 nM
Cc1nn2c(C(C)C)c(C(=O)N[C@H]3CCc4ccccc43)cnc2c1-c1cccc(CN(C)C)c1 [Example 366]	1.95	< 10 µg/mL	1580 nM
Cc1nn2c(C(C)C)c(C(=O)N[C@H]3CCc4ccccc43)cnc2c1-c1cccc(COCC(F)(F)F)c1 [Example 367]	4.99	< 10 µg/mL	158 nM
Cc1nn2c(C(C)C)c(C(=O)N[C@H]3CCc4ccccc43)cnc2c1-c1cccc(COC(C)C)c1 [Example 369]	5.25	< 10 µg/mL	20 nM
CCOCc1cccc(-c2c(C)nn3c(C(C)C)c(C(=O)N[C@H]4CCc5ccccc54)cnc23)c1 [Example 370]	4.86	< 1 µg/mL	15.8 nM
Cc1nn2c(C(C)C)c(C(=O)N[C@H]3CCc4ccccc43)cnc2c1-c1cccc(N2CCC2)c1 [Example 372]	4.67	< 1 µg/mL	15.8 nM
CCN(C)c1cccc(-c2c(C)nn3c(C(C)C)c(C(=O)N[C@H]4CCc5ccccc54)cnc23)c1 [Example 373]	3.48	< 1 µg/mL	39.8 nM
COCCn1cc(-c2c(C)nn3c(C(C)C)c(C(=O)N[C@H]4CCc5ccccc54)cnc23)cn1 [Example 375]	3.26	< 10 µg/mL	200 nM

SMILES	chromatographic logP [1]	EC50 [2]	EC50 [3]
COc1cc(Cl)cc(-c2c(C)nn3c(C(C)C)c(C(=O)N[C@H]4CCCc5ccccc54)cnc23)c1 [Example 378]	5.55	< 1 µg/mL	50.1 nM
CCN(CC)c1cccc(-c2c(C)nn3c(C(C)C)c(C(=O)N[C@H]4CCc5ccccc54)cnc23)c1 [Example 379]	2.81	< 1 µg/mL	100 nM
CSCc1cccc(-c2c(C)nn3c(C(C)C)c(C(=O)N[C@H]4CCc5ccccc54)cnc23)c1 [Example 388]	5	< 1 µg/mL	7.94 nM
Cc1nn2c(C(C)C)c(C(=O)N[C@H]3CCc4ccccc43)cnc2c1-c1cccc(COCC2CC2)c1 [Example 389]	5.24	< 10 µg/mL	251 nM
CCCOCc1cccc(-c2c(C)nn3c(C(C)C)c(C(=O)N[C@H]4CCc5ccccc54)cnc23)c1 [Example 390]	5.4	< 10 µg/mL	39.8 nM
COc1cc(-c2c(C)nn3c(C(C)C)c(C(=O)N[C@H]4CCOc5ccccc54)cnc23)cc(C(F)(F)F)c1 [Example 391]	5.13	< 1 µg/mL	25.1 nM
Cc1nn2c(C(C)C)c(C(=O)N[C@H]3CCOc4ccccc43)cnc2c1-c1cccc(OC(F)(F)F)c1 [Example 394]	5.19	< 0.1 µg/mL	15.8 nM
Cc1nn2c(C(C)C)c(C(=O)N[C@H]3CCc4ccccc43)cnc2c1-c1cnn(C(C)C)c1 [Example 398]	3.77	< 1 µg/mL	20 nM
Cc1nn2c(C(C)C)c(C(=O)N[C@H]3CCc4ccccc43)cnc2c1-c1cccc(CN2CCN(C)CC2)c1 [Example 399]	1.98	< 10 µg/mL	7940 nM
Cc1nn2c(C(C)C)c(C(=O)N[C@H]3CCc4ccccc43)cnc2c1-c1cccc(CS(C)(=O)=O)c1 [Example 400]	3.39	< 10 µg/mL	126 nM
CC(C)c1c(C(=O)N[C@H]2CCc3ccccc32)cnc2c(-c3cccc(N(C)C)c3)c(C3CC3)nn12 [Example 407]	4.81	< 10 µg/mL	126 nM
COc1cccc(-c2c(C3CC3)nn3c(C(C)C)c(C(=O)N[C@H]4CCc5ccccc54)cnc23)c1 [Example 408]	5.19	< 10 µg/mL	316 nM
CC(C)c1c(C(=O)N[C@H]2CCc3ccccc32)cnc2c(-c3c(F)cccc3F)c(C3CC3)nn12 [Example 413]	4.96	< 1 µg/mL	251 nM
Cc1nn2c(C3CC3)c(C(=O)N[C@H]3CCc4ccccc43)cnc2c1-c1cccc(OC(F)F)c1 [Example 417]	4.01	< 0.1 µg/mL	7.94 nM
Cc1nn2c(C3CC3)c(C(=O)N[C@H]3CCc4ccccc43)cnc2c1-c1cccc(OC2CC2)c1 [Example 418]	4.29	< 0.1 µg/mL	3.16 nM
Cc1nn2c(C(C)C)c(C(=O)N[C@H]3CCCc4ccccc43)cnc2c1-c1cnn(CC2CC2)c1 [Example 420]	4.13	< 10 µg/mL	7.94 nM
COc1cc(-c2c(C)nn3c(C4CC4)c(C(=O)N[C@H]4CCc5ccccc54)cnc23)cc(C(F)(F)F)c1 [Example 423]	4.7	< 10 µg/mL	63.1 nM
Cc1nn2c(C3CC3)c(C(=O)N[C@H]3CCc4ccccc43)cnc2c1-c1cc(Cl)cc(C(F)(F)F)c1 [Example 425]	5.34	< 10 µg/mL	79.4 nM
